According to US6033823A, “Mutated penicillin G acylase genes” (priority 1994, dated 2000):
Numbering of substitutions follows the chain as printed.

How the values were obtained:
[1] = target: T1, Alcaligenes faecalis Penicillin G acylase mutant A:M143V (Alcaligenes faecalis, UniProt O34142, M169V); assay: Deacylation kinetics and phenylacetic acid product inhibition, mutant A:M143V; type: biochemical; settings: from progress curves of NIPAB deacylation, 25° C., 0.1 M NaH2PO4.H2O buffer pH 7.5, read-out: Ki Phenylacetic acid (inhibition constant, dissociation constant)
T1 construct: alpha 202 aa, beta 551 aa; recombinant, E. coli host
T1 sequence (O34142 27-228 M169V): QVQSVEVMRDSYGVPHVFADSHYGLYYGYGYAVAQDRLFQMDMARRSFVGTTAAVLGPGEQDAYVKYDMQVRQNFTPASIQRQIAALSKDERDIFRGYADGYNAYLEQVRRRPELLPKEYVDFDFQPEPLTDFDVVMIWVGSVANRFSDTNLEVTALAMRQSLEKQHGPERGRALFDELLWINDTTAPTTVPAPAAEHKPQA
T1 sequence (O34142 266-816): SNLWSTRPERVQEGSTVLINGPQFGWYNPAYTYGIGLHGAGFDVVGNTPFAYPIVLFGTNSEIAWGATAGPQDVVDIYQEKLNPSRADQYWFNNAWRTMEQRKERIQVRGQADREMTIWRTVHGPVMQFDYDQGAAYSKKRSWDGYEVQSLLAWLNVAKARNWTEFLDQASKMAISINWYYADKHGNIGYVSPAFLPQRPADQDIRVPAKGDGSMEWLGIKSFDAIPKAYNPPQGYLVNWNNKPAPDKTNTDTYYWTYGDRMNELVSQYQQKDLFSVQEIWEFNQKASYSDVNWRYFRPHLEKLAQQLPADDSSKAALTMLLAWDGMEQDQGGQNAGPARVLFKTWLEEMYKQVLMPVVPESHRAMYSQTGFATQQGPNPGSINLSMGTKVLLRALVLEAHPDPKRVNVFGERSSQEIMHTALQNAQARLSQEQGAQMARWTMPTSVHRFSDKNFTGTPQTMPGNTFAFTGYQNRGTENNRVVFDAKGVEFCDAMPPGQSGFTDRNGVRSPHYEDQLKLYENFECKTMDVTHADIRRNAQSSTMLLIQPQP
Description: In order to determine enzymatic activity the acylases were incubated with substrate at room temperature in buffered solution. In case β-lactamase impurity was expected to be present in the enzyme preparations, 1.0 mM -lactamase inhibitor 6-bromo-penicillanic acid was added to the assay. The reactions were stopped by adding an excess PMSF. For some mutants which were less sensitive to PMSF inhibition, the reactions were stopped by adding 0.5 M HCl or 0.5 M acetic acid until the pH was between 3 and 4. When reactions were subsequently analysed by HPLC, the reactions were stopped by dilution with the correponding elution solvent (see table 1). […]
The composition of the reaction mixtures was determined by high-performanceliquid chromatography (HPLC)(table 1). Concentrations were determined by using standards of known concentration.
In a continuous assay Penicillin G acylase was assayed spectro-fotometrically with the chromogenic substrate NIPAB [6-nitro-3-phenylacetamido-benzoic acid]. The liberation of 3-amino-6-nitrobenzoic acid was monitored by measuring the extinction at 405 nm in a Kontron 610 kinetic spectrofotometer. […]
Initial rate measurements were performed with excess substrate over the enzyme. Catalytic parameters were derived from least-squares fitting of the measured initial rates plotted for various substrate concentrations according to the Michaelis-Menten equation. […]

[2] = target: T2, Alcaligenes faecalis Penicillin G acylase mutant B:L56V (Alcaligenes faecalis, UniProt O34142, L321V); assay: NIPAB kinetics and phenylacetic acid product inhibition, mutant B:L56V; type: biochemical; settings: from progress curves of NIPAB deacylation, 25° C., 0.1 M NaH2PO4.H2O buffer pH 7.5, read-out: Ki Phenylacetic acid (inhibition constant, dissociation constant)
T2 construct: alpha 202 aa, beta 551 aa; recombinant, E. coli host
T2 sequence (O34142 27-228): T1 sequence (O34142 27-228 M169V) with V143M
T2 sequence (O34142 266-816 L321V): T1 sequence (O34142 266-816) with L56V
Description: In a continuous assay Penicillin G acylase was assayed spectro-fotometrically with the chromogenic substrate NIPAB [6-nitro-3-phenylacetamido-benzoic acid]. The liberation of 3-amino-6-nitrobenzoic acid was monitored by measuring the extinction at 405 nm in a Kontron 610 kinetic spectrofotometer. Measuring maximal rate, the assays were performed at 25° C. using 20 mM NaH2 PO4.H2 O at pH 7.5 with 20 mM NIPAB and 100 μl enzym solution (at a proper dilution). Initial rate measurements were performed with varying concentration of NIPAB.
Initial rate measurements were performed with excess substrate over the enzyme. Catalytic parameters were derived from least-squares fitting of the measured initial rates plotted for various substrate concentrations according to the Michaelis-Menten equation.
The complete conversion of NIPAB was followed as a funtion of time at 20, 50 and 100 μM NIPAB by following the increase in absorbtion at 405 nm. Products of this conversion are phenylacetic acid and 3-amino-6-nitrobenzoic acid. The conversion was performed at 25° C. in 0.1 M NaH2 PO4.H2 O buffer pH 7.5. The progress curves of the deacylation of NIPAB could be fitted very well when product inhibition by phenylacetic acid was taken into account. […]

Compound O=C(O)Cc1ccccc1 [phenylacetic acid] has a Ki [1] of 74 µM and a Ki [2] of 31 µM.
